Patent US20260070924A1, “INDAZOLE MACROCYCLES AND THEIR USE” (BLOSSOMHILL THERAPEUTICS, INC., priority 2022, published 2026)
Where two headings read alike, the source gives them in different places.

Tests used:
[1] = test system: MV-4-11 cells; assay: MV-4-11 cell proliferation assay (CellTiter-Glo 2.0); type: cell-based; conditions: MV-4-11, 384-well, 11-dose dilution series, read-out: IC50, inhibition of MV-4-11 cell proliferation
Procedure: MV-4-11 cell line was purchased from ATCC and maintained in RPMI medium supplemented with 10% fetal bovine serum and 100 U/mL of penicillin/streptomycin. One thousand MV-4-11 cells/50 μl per well were seeded in white 384-well plate, followed by treatment with indicated compounds in a 11-dose dilution series. Cell proliferation was measured using CellTiter-Glo 2.0 luciferase-based ATP detection assay (Promega, Madison, WI) following the manufacturer's protocol. Plates were then read on a TECAN Sparks multimode microplate reader. Data was analyzed using GraphPad Prism 9 (GraphPad Software, San Diego, CA) to obtain IC50 values.

[2] = target: PIM2 (Homo sapiens (Human), UniProt Q9P1W9); assay: HotSpot radiometric kinase assay (Reaction Biology); type: biochemical
Sequence of PIM2 (Q9P1W9 whole entry): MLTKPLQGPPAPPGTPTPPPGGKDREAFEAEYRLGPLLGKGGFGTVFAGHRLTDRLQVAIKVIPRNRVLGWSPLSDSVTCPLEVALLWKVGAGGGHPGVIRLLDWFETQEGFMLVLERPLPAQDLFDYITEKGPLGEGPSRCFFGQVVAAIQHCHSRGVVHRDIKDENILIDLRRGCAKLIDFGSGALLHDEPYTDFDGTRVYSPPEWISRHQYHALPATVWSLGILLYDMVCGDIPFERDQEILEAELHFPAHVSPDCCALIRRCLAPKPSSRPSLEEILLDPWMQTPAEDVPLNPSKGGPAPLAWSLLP
Procedure: (§1) Briefly, specific kinase/substrate pairs along with required cofactors were prepared in reaction buffer; 20 mM Hepes pH 7.5, 10 mM MgCl2, 1 mM EGTA, 0.02% Brij35, 0.02 mg/ml BSA, 0.1 mM Na3VO4, 2 mM DTT, 1% DMSO. Compounds were delivered into the reaction, followed ˜20 minutes later by addition of a mixture of ATP (Sigma, St. Louis MO) and ^33P ATP (Perkin Elmer, Waltham MA) to a final concentration of […]. Reactions were carried out at room temperature for 120 min, followed by spotting of the reactions onto P81 ion exchange filter paper (Whatman Inc., Piscataway, NJ). Unbound phosphate was removed by extensive washing of filters in 0.75% phosphoric acid. […] IC50 values and curve fits were obtained using Prism (GraphPad Software).

[3] = target: PIM1 (Homo sapiens (Human), UniProt P11309); assay: as above; type: biochemical
Sequence of PIM1 (P11309 whole entry): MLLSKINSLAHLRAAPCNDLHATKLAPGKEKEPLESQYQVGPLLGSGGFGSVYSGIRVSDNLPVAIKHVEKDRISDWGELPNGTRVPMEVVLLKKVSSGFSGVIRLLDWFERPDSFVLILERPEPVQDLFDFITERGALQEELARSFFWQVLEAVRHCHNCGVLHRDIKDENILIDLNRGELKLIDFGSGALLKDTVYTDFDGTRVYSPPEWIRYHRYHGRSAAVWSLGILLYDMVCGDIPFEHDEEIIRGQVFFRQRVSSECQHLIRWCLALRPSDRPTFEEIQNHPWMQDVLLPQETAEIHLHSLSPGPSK
Procedure: as §1

[4] = target: PIM3 (Homo sapiens (Human), UniProt Q86V86); assay: as above; type: biochemical
Procedure: as §1

[5] = target: FLT3 (Homo sapiens (Human), UniProt P36888); assay: as above; type: biochemical
Sequence of FLT3 (P36888 27-993): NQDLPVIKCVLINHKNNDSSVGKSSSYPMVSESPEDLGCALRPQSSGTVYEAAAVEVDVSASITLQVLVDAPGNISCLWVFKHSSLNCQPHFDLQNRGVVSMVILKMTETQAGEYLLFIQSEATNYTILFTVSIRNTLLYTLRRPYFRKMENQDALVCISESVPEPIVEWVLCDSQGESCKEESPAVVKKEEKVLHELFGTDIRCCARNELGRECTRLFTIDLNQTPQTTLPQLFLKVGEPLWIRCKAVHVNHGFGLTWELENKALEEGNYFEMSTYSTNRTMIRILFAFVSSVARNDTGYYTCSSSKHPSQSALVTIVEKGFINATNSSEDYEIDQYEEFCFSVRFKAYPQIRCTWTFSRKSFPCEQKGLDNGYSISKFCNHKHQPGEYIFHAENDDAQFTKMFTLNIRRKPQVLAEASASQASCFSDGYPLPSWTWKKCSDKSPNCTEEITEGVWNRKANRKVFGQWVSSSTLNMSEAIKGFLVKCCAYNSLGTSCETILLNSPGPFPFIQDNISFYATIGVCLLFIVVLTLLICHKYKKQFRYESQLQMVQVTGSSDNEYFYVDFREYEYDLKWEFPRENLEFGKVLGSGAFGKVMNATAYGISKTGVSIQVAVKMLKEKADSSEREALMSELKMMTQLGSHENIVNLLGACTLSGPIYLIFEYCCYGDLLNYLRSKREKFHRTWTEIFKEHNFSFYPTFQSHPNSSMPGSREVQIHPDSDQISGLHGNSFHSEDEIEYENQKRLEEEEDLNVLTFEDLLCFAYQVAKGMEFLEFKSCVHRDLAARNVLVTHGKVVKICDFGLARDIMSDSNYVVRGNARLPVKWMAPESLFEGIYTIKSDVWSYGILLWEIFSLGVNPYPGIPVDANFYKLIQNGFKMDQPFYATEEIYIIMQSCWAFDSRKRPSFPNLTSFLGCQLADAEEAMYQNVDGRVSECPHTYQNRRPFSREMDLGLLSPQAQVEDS

[6] = target: FLT3-ITD (Homo sapiens, UniProt P36888, ITD); assay: as above; type: biochemical
Sequence of FLT3-ITD (Homo sapiens, UniProt P36888, ITD) (P36888 whole entry, looked up, change not shown): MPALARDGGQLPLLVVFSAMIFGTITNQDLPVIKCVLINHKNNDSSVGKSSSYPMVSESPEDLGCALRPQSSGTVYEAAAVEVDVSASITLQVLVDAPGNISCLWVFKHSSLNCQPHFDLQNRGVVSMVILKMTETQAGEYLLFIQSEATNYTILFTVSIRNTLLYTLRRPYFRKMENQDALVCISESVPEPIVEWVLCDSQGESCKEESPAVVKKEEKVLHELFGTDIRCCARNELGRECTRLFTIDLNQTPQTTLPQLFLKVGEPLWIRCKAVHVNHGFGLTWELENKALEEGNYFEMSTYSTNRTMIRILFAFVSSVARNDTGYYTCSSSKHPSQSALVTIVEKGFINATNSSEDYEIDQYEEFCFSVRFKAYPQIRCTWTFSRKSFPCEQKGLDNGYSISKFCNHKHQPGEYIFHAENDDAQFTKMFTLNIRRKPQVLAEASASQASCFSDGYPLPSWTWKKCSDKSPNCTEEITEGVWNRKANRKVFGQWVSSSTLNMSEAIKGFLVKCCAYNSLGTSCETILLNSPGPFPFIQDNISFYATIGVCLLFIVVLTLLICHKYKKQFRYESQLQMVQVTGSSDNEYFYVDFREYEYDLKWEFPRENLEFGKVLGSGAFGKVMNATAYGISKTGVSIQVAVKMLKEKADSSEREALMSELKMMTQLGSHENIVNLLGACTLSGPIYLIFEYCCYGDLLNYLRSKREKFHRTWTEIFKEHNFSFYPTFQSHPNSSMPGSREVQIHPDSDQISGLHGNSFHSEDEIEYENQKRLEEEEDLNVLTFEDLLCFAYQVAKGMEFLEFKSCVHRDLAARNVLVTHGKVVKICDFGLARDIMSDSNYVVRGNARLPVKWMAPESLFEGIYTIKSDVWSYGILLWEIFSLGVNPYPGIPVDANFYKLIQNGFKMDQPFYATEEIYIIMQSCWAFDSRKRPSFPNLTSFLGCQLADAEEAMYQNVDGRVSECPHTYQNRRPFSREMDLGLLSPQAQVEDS

[7] = from C=Cc1nn(C2CCCCO2)c2ccc(-c3cnn(C)c3OCCN(C)C(=O)c3c(I)c(Br)nn3C)cc12; cc_pd bond; Pd(OAc)2, NaHCO3, TBAC; DMF; 54.0 mM; 140.0 °C; 1.5 h
[8] = test system: Phospho-S6 Ribosomal Protein (S235/236); assay: Inhibition of kinase phosphorylation by Western Blot in MV-4-11; type: cell-based; conditions: Homo sapiens, MV4-11; MV-4-11 cells, 4 hour-incubation; read-out: pS6 MV-4-11 IC50
Procedure: (§2) Inhibition of kinase phosphorylation assay was performed by Western Blot using MV-4-11 and MOLM13 cell lines. Cells were plated in 24 well plates at 1 million cells per well and then treated with compounds at different concentrations, starting at 100 nM, 1:4 titration with DMSO as control. After 4 hour-incubation, cells were washed once with ice-cold PBS, and lysed in RIPA lysis buffer with protease and phosphatase inhibitors. The cell lysates were then sonicated and spun down, and 40 μg of proteins were separated by sodium dodecyl sulfate electrophoresis on a 4 to 12% Bis-Tris polyacrylamide gel and transferred onto nitrocellulose membranes using Bio-Rad Trans-Blot Turbo Transfer System (Bio-Rad). Blocking was performed using 3% BSA or 5% Non-fat dry milk (Fisher Scientific) in TBST (Tris-buffered saline containing 0.05% of Tween 20) (Bio-Rad Laboratories, Inc.). The membranes were incubated overnight with anti-phospho-FLT3 (Y589/Y591) (CST #60413), anti-phospho-STAT5 (Y694) (CST #4322), anti-Phospho-p44/42 MAPK (Erk1/2) (T202/Y204) (CST #9101), anti-Phospho-S6 Ribosomal Protein (S235/236) (CST #4858) and anti-β-Actin (CST #8457) each diluted 1000 times in 3% BSA in TBST. Membranes were washed with TBST and then incubated at room temperature for 1 hour with HRP-labeled anti-rabbit IgG polyclonal antibody (CST #7074) diluted 1000 times in 3% BSA. After TBST washing, blots were developed with a chemiluminescence system (SuperSignal West Femto Maximum Sensitivity Substrate, Pierce #34095). Luminescence was detected by LI-COR Odyssey M imaging system and luminescence intensity were quantified using Empiria Studio 2.2 software. Data was analyzed using GraphPad Prism 9 (GraphPad Software, San Diego, CA) to obtain IC50 values.

[9] = test system: Phospho-p44/42 MAPK (Erk1/2) (T202/Y204); assay: as above; type: cell-based; conditions: Homo sapiens, MV4-11; MV-4-11 cells, 4 hour-incubation; read-out: pERK MV-4-11 IC50
Procedure: as §2

[10] = test system: phospho-STAT5 (Y694); assay: as above; type: cell-based; conditions: Homo sapiens, MV4-11; MV-4-11 cells, 4 hour-incubation; read-out: pSTAT5 MV-4-11 IC50
Procedure: as §2

[11] = test system: Phospho-S6 Ribosomal Protein (S235/236); assay: Inhibition of kinase phosphorylation by Western Blot in MOLM-13; type: cell-based; conditions: Homo sapiens; MOLM-13 cells, 4 hour-incubation; read-out: pS6 MOLM-13 IC50
Procedure: as §2

[12] = test system: Phospho-p44/42 MAPK (Erk1/2) (T202/Y204); assay: as above; type: cell-based; conditions: Homo sapiens; MOLM-13 cells, 4 hour-incubation; read-out: pERK MOLM-13 IC50
Procedure: as §2

[13] = test system: phospho-STAT5 (Y694); assay: as above; type: cell-based; conditions: Homo sapiens; MOLM-13 cells, 4 hour-incubation; read-out: pSTAT5 MOLM-13 IC50
Procedure: as §2

[14] = target: FLT3-ITD (Homo sapiens, UniProt P36888); assay: HotSpot radiometric kinase assay (Reaction Biology); type: biochemical
Sequence of FLT3-ITD (Homo sapiens, UniProt P36888) (P36888 whole entry, looked up, change not shown): as above

Row | IC50 ([1]; Homo sapiens, MV4-11) [nM] | IC50 [2] [nM] | IC50 [3] [nM] | IC50 [4] [nM] | IC50 [5] [nM] | Structure (SMILES) | also measured
1 | < 0.2 | 8.17 | 1.64 | 0.0732 | – | Cc1nn(C)c2c1/C=C/c1n[nH]c3ccc(cc13)-c1cnn(C)c1OCCN(C)C2=O [compound 8, (17E)-8,12,14,16-tetramethyl-2,11,12,14-tetrahydro-8H-3,5-ethenotripyrazolo[3,4-f:3′,4′-j:4″,3″-n][1,4]oxazacyclopentadecin-13(10H)-one] | –
2 | ~1 | 145 | 12.7 | 3.65 | 0.347 | Cc1c2c(nn1C)C(=O)N(C)CCOc1c(cnn1C)-c1ccc3[nH]nc(c3c1)/C=C/2 [compound 9, (17E)-8,12,15,16-tetramethyl-2,11,12,15-tetrahydro-8H-3,5-ethenotripyrazolo[3,4-f:3′,4′-j:4″,3″-n][1,4]oxazacyclopentadecin-13(10H)-one] | IC50 [6]: 0.592 nM
3 | – | – | – | – | – | CN1CCOc2c(cnn2C)-c2ccc3c(c2)c(nn3C2CCCCO2)/C=C/c2c(Br)nn(C)c2C1=O (centres unmarked) | ring closure, yield of all isomers [7]: 94.8%
4 | – | – | – | – | – | CCc1nc(C(N)=O)c(Nc2ccc(N3CCC(N4CCN(C)CC4)CC3)c(OC)c2)nc1NC1CCOCC1 [Gilteritinib, reference compound] | IC50 [8]: 0.92 nM; IC50 [9]: 1.63 nM; IC50 [10]: 1.75 nM; IC50 [11]: 7.91 nM; IC50 [12]: 1.31 nM; IC50 [13]: 2.23 nM
5 | – | 14 | 6.72 | 0.221 | 0.247 | CCc1c2c(nn1C)C(=O)N(C)CCOc1c(cnn1C)-c1ccc3[nH]nc(c3c1)/C=C/2 [compound 7, (17E)-16-ethyl-8,12,15-trimethyl-2,11,12,15-tetrahydro-8H-3,5-ethenotripyrazolo[3,4-f:3′,4′-j:4″,3″-n][1,4]oxazacyclopentadecin-13(10H)-one] | IC50 [1]: 73.1 nM; IC50 [14]: 0.537 nM
